Values of other authors, collected in patent US20250042860A1, “Process for Chemical Synthesis of Ergothioneine and Methods of Use” (NANJING NUTRABUILDING BIO-TECH CO., LTD., priority 2022, published 2025).

Conditions: animals and humans, even at high doses

ergothioneine
toxicity or adverse effects associated with ergothioneine administration: no toxicity or adverse effects
